Test [1] relates to mouse hippocampal neurons. The test is described as follows: Pharmacological stimulation and inhibition of neurons recorded on the vertical Si nanowire probe array. Type of test: cell-based.
Test [2] deals with human iPSC-derived neurons. The format is cell-based.

Where two headings read alike, the source gives them in different places.

For the compound `NC1=N[C@H](O)[C@H]2[C@H]3O[C@]4(O)O[C@@H]([C@@H](O)[C@@]2(N1)[C@@H]4O)[C@]3(O)CO` [TTX, tetrodotoxin], in test [1], the “activity relative to the baseline recording” value was “eliminated” and the “cellular activity / neuronal spiking” value is given as “neuronal spiking vanished”.

As to `[Cl-].[K+]` [KCl], the “firing (rate) of spontaneous action potentials” value in test [2] was “increased firing rate”. Also, in test [1], the “cellular activity / neuronal spiking” value is “increased” and the “firing (rate) of spontaneous action potentials” value is given as “increased firing rate”. Also, the “activity relative to the baseline recording” value in test [1] (extracellular configuration, injection, nanowire recording) was “increased activity relative to the baseline recording”.

In the case of glutamate, the “cellular activity / neuronal spiking” value in test [1] is “increased”. For the same compound, the “cell activity (frequency and amplitude) compared to the baseline spontaneous activity measured on the same channel” value in test [1] (intracellular configuration, injection, nanowire recording) was “increase of the cell activity with respect to frequency and amplitude”.

These data come from patent US11363979B2, “Addressable vertical nanowire probe arrays and fabrication methods” (priority 2016, dated 2022).
